What was measured:
[1] = Stability of alpha-dicarbonyl metabolites under reaction conditions; type: in vitro ADME; details: low (50 μM) and high (500 μM) concentrations; student's t-test p < 0.05
[2] = biological target: T1, microsomal epoxide hydrolase (Homo sapiens, UniProt P07099); type: in vitro ADME; details: 1 μM elaidamide; 40 and 400 μM substrate; HLM
T1 sequence (P07099 1-455): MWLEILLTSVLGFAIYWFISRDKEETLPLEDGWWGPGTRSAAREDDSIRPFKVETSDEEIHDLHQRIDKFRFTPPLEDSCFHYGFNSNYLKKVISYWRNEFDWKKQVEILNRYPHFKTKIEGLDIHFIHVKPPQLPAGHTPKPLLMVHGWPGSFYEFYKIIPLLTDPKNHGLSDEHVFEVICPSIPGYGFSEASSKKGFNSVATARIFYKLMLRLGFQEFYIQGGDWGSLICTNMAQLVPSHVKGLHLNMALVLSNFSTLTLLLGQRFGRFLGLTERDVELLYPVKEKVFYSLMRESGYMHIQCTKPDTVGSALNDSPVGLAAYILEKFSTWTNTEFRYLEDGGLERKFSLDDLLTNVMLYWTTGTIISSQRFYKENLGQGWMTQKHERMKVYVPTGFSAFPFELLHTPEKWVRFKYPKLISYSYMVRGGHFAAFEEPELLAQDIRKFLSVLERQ

| Compound | depletion under reaction conditions [1] | inhibition of alpha-dicarbonyl formation by elaidamide [2] [%] |
| --- | --- | --- |
| O=CC=O [glyoxal] | no significant depletion | – |
| CC(=O)C=O [methylglyoxal] | only significant depletion after 60 min | – |
| CN1C(C(=O)Nc2nccs2)=C(O)c2ccccc2S1(=O)=O [sudoxicam, N-(2-thiazolyl)-4-hydroxy-2-methyl-2H-1,2-benzothiazine-3-carboxamide 1,1-dioxide] | – | 90 |
